As a reminder, the Kd is a measure of binding affinity in units of concentration.

Assay [1] has as its system ob/ob mice. Kind of assay: Oral (p.o.) administration of rhZAG to ob/ob mice. Format: in vivo, mouse. The following applies: 50 ug ZAG p.o. daily with propranolol. Here is the method:
50 ug per day of rhZAG was administered p.o. to Aston ob/ob mice. Oral dosing was achieved by assuming 5 mL/day consumption of water, and adding ZAG to achieve 50 ug per day dose based on that assumption. No attempt was made to correct for variations of consumption on a given day.
Experiment One (8 Day Oral ZAG Study): 50 ug of ZAG was administered p.o. daily in drinking water.
Experiment Two (8 Day Oral ZAG Plus Propranolol Study): 50 ug of ZAG administered p.o. daily, with and without propranolol. Propanolol blocks all of the effects of ZAG including decrease in body weight and blood glucose in the tolerance test, also blocking the rise in body temperature and the rise in plasma mouse ZAG, confirming that this occurs through a beta adrenergic receptor. […] It appears to do this by preventing the rise in mouse ZAG in the serum after oral administration of the rhZAG.
Experiment Three (Oral Study): ZAG administered p.o. daily over an extended time frame, with a recovery group split from the treated group beginning at 30 days (data not shown).

Assay [2] concerns ob/ob mice. The assay can be described thus: ob/ob mice treated with ZAG i.v. with or without propanolol. Format: in vivo, mouse. The conditions noted are these: propanolol 40 mg kg−1 po daily. The protocol: Animals. […] Male mice (about 20 weeks of age) were grouped into three per cage and kept in an air conditioned room at 22±2° C., with ad libitum feeding of a rat and mouse breeding diet (Special Diet Services, Witham, UK) and tap water. Mice were administered ZAG (50 μg, i.v. in 100 μl PBS) or PBS daily with or without propanolol (40 mgkg^−1, po, daily) and body weight and food and water intake were determined, as well as urinary glucose excretion and body temperature, determined by the use of a rectal thermometer (RS Components, Northants, UK). A glucose tolerance test was performed on day 3. […] Blood samples were removed from the tail vein at 15, 30, 60 and 120 min after glucose administration and used for the measurements of glucose and insulin. At the end of the experiment the animals were terminated by cervical dislocation, tissues removed and rapidly frozen in liquid nitrogen, and maintained at −80° C.
To determine whether ZAG can increase insulin signalling the effect on Glut4 expression was determined.

In assay [3] the target is T1, β3-AR (Homo sapiens, UniProt P13945). The assay can be described thus: Cyclic AMP production in CHO-K1 cells transfected with β3-AR. The following applies: CHO β3-AR. Details: host or cells: CHO-K1. It counts as cell-based. The protocol: (§1) Binding Studies and Cyclic AMP Determination. CHO-K1 cells transfected with the human β1- and β2-AR obtained from University of Nottingham, UK, while CHOK1 cells transfected with the β3-AR were obtained from Astra Zeneca, Macclesfield, Cheshire, UK. Gene expression was under the control of hygromycin, together with a β-gal reporter construct, selected for resistance to G418. They were maintained in DMEM supplemented with 2 mM glutamine, hygromycin B ([…]), G418 ([…]), and 10% FCS, under an atmosphere of 10% CO2 in air. To determine the effect of agonists on cyclic AMP production, cells were grown in 24-well plates containing 1 ml of nutrient medium.

The next assay deals with murine myotubes. Kind of assay: Murine myotubes subjected to high glucose: protein degradation, protein synthesis, ROS, pPKR. Format: cell-based, mouse. The conditions noted are these: 10 or 25 mM glucose; ZAG 25 μg/ml. Here is the method:
This utilizes murine myotubes subjected to high concentrations of glucose (10 or 25 mM). […] However the SR compound (i.e., SR59230A) can also act as a β-agonist, which it seemed to do in these experiments.
It has been shown that formation of reactive oxygen species (ROS) is important in protein degradation induced by high glucose load. […] High glucose also induces activation (phosphorylation) of PKR (FIG. 22A) and the subsequent phosphorylation of eIF2α (FIG. 22B) as is seen in skeletal muscle of ob/ob mice, which was also attenuated by ZAG.

In assay [4] the test system is rat epididymal adipocytes. Kind of assay: Lipolytic activity in rat adipocytes. It counts as cell-based. The following applies: rat epididymal adipocytes. The protocol: Lipolytic Activity in Rat Adipocytes—White adipocytes were prepared from finely minced epididymal adipose tissue of male Wistar rats (400 g) using collagenase digestion, as described (Beck S A, et al. Production of lipolytic and proteolytic factors by a murine tumor-producing cachexia in the host. Cancer Res 47:5919-5923, 1987). Lipolytic activity was determined by incubating 10^5-2×10^5 adipocytes for 2 h in 1 ml Krebs-Ringer bicarbonate buffer, pH 7.2, and the extent of lipolysis was determined by measuring the glycerol released (Wieland O. Glycerol UV method. Methods of Enzymatic Analysis, edited by Bergmeyer H U. Academic Press, London, pp 1404-1409, 1974). Spontaneous glycerol release was measured by incubating adipocytes alone. Lipolytic activity was expressed as μmol glycerol released/10^5 adipocytes/2 h.

In a further assay the target is T2, human β2-AR (Homo sapiens, UniProt P07550).
T2 construct: host or cells: CHO-K1
The assay can be described thus: Cyclic AMP production in CHO-K1 cells transfected with β2-AR. Format: cell-based. The following applies: CHO β2-AR, SR59230A 10 μM. The protocol:
as §1

The next assay has as its system adipocytes, BAT. Kind of assay: Expression of ZAG, HSL, UCP in adipose tissue/adipocytes of mice (5 day ZAG study). Format: in vivo, mouse. The conditions noted are these: ERK inhibitor added with ZAG. The protocol:
Western Blot Analysis. Freshly excised gastrocnemius muscles were washed in PBS and lysed in PHOSPHOSAFE™ Extraction Reagent for 5 min at room temperature followed by sonication at 4° C. The lysate was cleared by centrifugation at 18,000 g for 5 min at 4° C. and samples of cytosolic protein (5 μg) were resolved on 12% sodium dodecyl sulfate-polyacrylamide gel electrophoresis at 180V for approximately 1 h. This was followed by transference to 0.45 μm nitrocellulose membranes, which were then blocked with 5% Marvel in Tris-buffered saline, pH 7.5, at 4° C. overnight. Both primary and secondary antibodies were used at a dilution of 1:1000 except anti-myosin (1:250). Incubation was for 1 h at room temperature, and development was by ECL. Blots were scanned by a densitometer to quantify differences.
A 5 day study was performed where ZAG was administered at 35 μg per day i.v. on a daily basis for 5 days. At the end of the experiment tissues were removed and blotted, or functional assays were carried out with isolated adipocytes. […] When ep adipocytes were prepared and maintained in tissue culture (RPMI 1640+10% FCS) ZAG expression was maintained for a further 3 days, even though no ZAG was added to the culture medium (FIG. 6B). […] In fact, as discussed above, too much ZAG is more likely to lead to resistance rather than an increased response.

The target of assay [5] is T1, β3-AR. The following applies: high affinity binding site; cited from earlier work.

T1 sequence (P13945 whole entry): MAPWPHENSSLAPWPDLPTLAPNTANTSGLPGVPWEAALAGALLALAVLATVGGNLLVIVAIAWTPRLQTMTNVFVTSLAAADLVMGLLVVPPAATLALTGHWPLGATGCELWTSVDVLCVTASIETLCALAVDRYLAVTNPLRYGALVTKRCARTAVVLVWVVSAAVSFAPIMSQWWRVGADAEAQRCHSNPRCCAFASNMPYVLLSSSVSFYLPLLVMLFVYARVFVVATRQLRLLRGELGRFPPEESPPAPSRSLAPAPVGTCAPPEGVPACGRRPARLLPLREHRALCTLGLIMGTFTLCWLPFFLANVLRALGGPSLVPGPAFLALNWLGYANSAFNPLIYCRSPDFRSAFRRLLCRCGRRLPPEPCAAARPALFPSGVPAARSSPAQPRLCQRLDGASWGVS
T2 sequence (P07550 whole entry): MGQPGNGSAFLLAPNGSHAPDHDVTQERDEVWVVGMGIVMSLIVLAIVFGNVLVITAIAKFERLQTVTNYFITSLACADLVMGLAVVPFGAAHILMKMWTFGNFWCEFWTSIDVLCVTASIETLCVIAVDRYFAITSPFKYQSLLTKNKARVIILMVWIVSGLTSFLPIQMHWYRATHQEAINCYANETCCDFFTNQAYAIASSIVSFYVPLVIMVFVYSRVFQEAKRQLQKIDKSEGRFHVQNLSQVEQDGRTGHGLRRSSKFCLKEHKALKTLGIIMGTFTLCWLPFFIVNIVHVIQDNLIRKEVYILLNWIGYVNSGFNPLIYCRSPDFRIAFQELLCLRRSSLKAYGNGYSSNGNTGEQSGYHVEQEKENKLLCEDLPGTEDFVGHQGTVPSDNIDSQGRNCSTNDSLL

On to `CC(C)NCC(O)COc1cccc2ccccc12` (centres unmarked) [propanolol, propranolol], for which, in the assay on ob/ob mice [1], the “effect on weight loss by oral ZAG” value is on record as “totally attenuates weight loss”. In the assay with ob/ob mice [2], the “effect on ZAG-induced changes in oral glucose tolerance test” value was “blocked the reduction in peak plasma glucose levels” and the “effect on increased body temperature produced by ZAG” value is on record as “completely attenuated”. Besides, the “effect on decrease in body weight produced by ZAG” value in the assay on ob/ob mice [2] (ZAG 50 μg iv daily) is recorded as “completely attenuated”.
`CC(C)NCC(O)c1ccc(O)c(O)c1` (centres unmarked) [isoprenaline, reference compound]: the “cyclic AMP level” value on β3-AR [3] (10 μM) is recorded as “significant increases in cyclic AMP level”.
For `CCc1ccccc1OC[C@@H](O)CN[C@H]1CCCc2ccccc21` [SR59230A, reference compound], the “effect on isoprenaline-induced increase in cyclic AMP” value at β3-AR [3] (SR59230A 10 μM) and at human β2-AR was “attenuated” in each case. For the same molecule, the “effect on protein degradation stimulated by high glucose” value in the assay on murine myotubes is reported as “attenuated”. Besides, the “effect on the lipolytic effect of ZAG” value in assay [4] is “completely attenuated”.
For the molecule `COc1cccc(-c2cc(=O)c3ccccc3o2)c1N` [PD98059, reference compound], the “effect on ZAG-induced expression of phospho HSL” value in the assay on adipocytes, BAT is “completely attenuated”.

B1: LMF: lipid mobilizing factor of cancer cachexia, shown immunologically identical to ZAG (protein, UniProt P25311 21-298, looked up)
Zinc-alpha-2-glycoprotein: QENQDGRYSLTYIYTGLSKHVEDVPAFQALGSLNDLQFFRYNSKDRKSQPMGLWRQVEGMEDWKQDSQLQKAREDIFMETLKDIVEYYNDSNGSHVLQGRFGCEIENNRSSGAFWKYYYDGKDYIEFNKEIPAWVPFDPAAQITKQKWEAEPVYVQRAKAYLEEECPATLRKYLKYSKNILDRQDPPSVVVTSHQAPGEKKKLKCLAYDFYPGKIDVHWTRAGEVQEPELRGDVLHNGNGTYQSWVVVAVPPQDTAPYSCHVQHSSLAQPLVVPWEAS
For B1, the Kd in the assay with β3-AR [5] was 78 ± 4.5 nM.
